According to patent publication US6436981B1 (dated 2002):

melting point [°C]	Compound
146 to 148	CO/N=C(C)/C(=N/N=C/c1ccccc1-n1c(OC)nn(C)c1=O)C1CC1
157 to 161	CON=C(C(C)=NN=Cc1ccccc1-n1c(OC)nn(C)c1=O)c1cccc(C(F)(F)F)c1
